This is an account of results in PMC12337082 (Journal of Biochemical and Molecular Toxicology, 2025).

Entries after “also recorded” stand apart in the source; their conditions may differ. Where two headings read alike, the source gives them in different places.

Series [1] relates to MCF‐7. The settings on record: MCF‐7, 24 h, monolayer cultures, ref Huang et al. (2017) [64], cited from earlier work.
Series [2] has as its system MDA‐MB‐231. The settings on record: MDA‐MB‐231, 24 h, monolayer cultures, ref Huang et al. (2017) [64], cited from earlier work.
The subject of series [3] is cancer cell proliferation. Further details: method as in PMID 27074576. The following applies: read-out: Effective range of cytotoxicity IC50 values in inhibiting cancer cell proliferation; cited from earlier work.
For series [4], the system named is multiple myeloma cell lines. Further details: method as in Yasui et al. (2007) [63]. The following applies: 48 h, ref Yasui et al. (2007) [63]; cited from earlier work.
In series [5] the test system is MCF‐7. The series is described as follows: MTT cell viability assay, MCF‐7. It is filed as cell-based, human. The following applies: for IC50: Homo sapiens, MCF7, MTT. The text has this: (§1) MCF‐7, MDA‐MB‐231, and L‐929 mouse fibroblast cell lines were obtained from the American Type Culture Collection (ATCC, Manassas, Virginia, USA). MCF‐7 is a hormone‐responsive, differentiated mammary epithelium cell line with an ER+, PR+, and HER2‐ pattern (ATCC, HTB‐22). MDA‐MB‐231 is a triple‐negative differentiated mammary epithelium cell line (ATCC, HTB‐26). The L‐929 mouse fibroblast cell line is derived from the normal subcutaneous connective tissue of a mouse and is commonly used in cytotoxicity assays (ATCC, CCL‐1). All cell lines were cultured in DMEM medium (Dulbecco's Modified Eagle Medium, Gibco), supplemented with 10% fetal bovine serum (Gibco), 1% glutamine, and penicillin/streptomycin (Gibco) in a humidified atmosphere containing 5% CO2 at 37°C. Cell viability was tested using Trypan blue staining.
(§2) The MTT [3‐(4,5‐dimethylthiazol‐2‐yl)−2,5‐diphenyltetrazolium bromide] assay is a colorimetric assay for determining cell metabolic activity. In the MTT assay, the yellow dye MTT that dissolves in water is changed by mitochondrial reductase into a purple formazan that is non‐soluble. The water‐insoluble formazan produced is solubilized in a solubilization buffer, and absorbances are detected.
(§3) In 96‐well plates, the cells were cultivated at a density of 5 × 10^3 cells/well using 100 µL medium. […] 10 μL of the MTT labeling reagent (final concentration 0.5 mg/mL) were added to each well at the end of the incubation periods, and the wells were incubated for an additional 4 h. Next, each well received 100 μL of solubilization buffer (10% SDS in 0.01 M HCl) and was overnight incubated, and the absorbance of formazan products was evaluated at 550 nm using a multi‐mode microplate reader (Synergy H1, Biotech Instruments Inc., Vermont, USA). The results were normalized relative to the absorbances of calculated percent concentrations of DMSO. All tests involved three replicates with three independent experiments.
(§4) All statistical evaluations, including t‐tests and IC50 values, were calculated using the GraphPad Prism software tool (v6.0, GraphPad Software Inc., San Diego, USA). Statistical significance was defined as p ˂ 0.05 (*p < 0.05, **p < 0.01, ***p < 0.001, ****p < 0.0001).
On the technique in general: Tetrazolium dyes change colour on reduction, which living cells bring about.

For series [6], the system named is COX‐2. Put plainly: Western blot COX‐2 protein expression, MDA‐MB‐231. It is filed as cell-based, human. The following applies: 24 h. As for the experimental part:
(§5) Total protein levels were measured using the Take3 Multi‐Volume Plate (Synergy H1, BioTek Instruments Inc., Vermont, USA). In accordance with the classical protocol, transferred proteins were exposed to the following primary antibodies: Beta‐actin (NB600‐501, Novus Biologicals), Bax (SPM336, NBP2‐32809), Bcl‐2 (100/D5, NBP2‐15200), cleaved PARP (194C1439, NBP2‐27335), and COX‐2 (D‐12:sc‐166475, Santa Cruz). The bands were visualized with chemiluminescent HRP substrates (Western Bright ECL‐Advansta, K‐12045‐050). Using a chemiluminescence imaging system (Celvin S, BioStep), the relative quantification was done based on the level of β‐actin proteins.
A general note: In western blotting, separated proteins are transferred to a membrane and probed.

The subject of series [7] is MDA‐MB‐231. Put plainly: Annexin V/PI staining, Tali image‐based cytometry, MDA‐MB‐231. The settings on record: MDA‐MB‐231, 24 h. It is filed as cell-based, human. The source says:
(§6) To assess apoptosis and cell death, cells were stained with Annexin V‐PI dyes (Tali Apoptosis Kit‐Annexin V Alexa Fluor 488 and PI‐, Molecular Probes A10788, Invitrogen) and quantified using Tali Image‐Based Cytometer (Invitrogen) and fluorescence microscopy (Olympus CKX41 Inverted Phase Contrast Fluorescence Microscope furbished with reflected fluorescence illuminator CKX‐RFA).
(§7) To assess whether our compounds produce their cytotoxic effects through induction of apoptosis, apoptosis was investigated using Annexin V/PI labeling and MMP methods (Figures 4A−C). In addition, by utilizing TALI image‐based cytometry and fluorescent microscopy, the number of cells was analyzed for different concentrations of agents (Table 4).

The test system of series [8] is MCF‐7. Put plainly: Annexin V/PI staining, Tali image‐based cytometry, MCF‐7. It is filed as cell-based, human. The settings on record: MCF‐7, 24 h.
Description: as §6, §7

Series [9] concerns MDA‐MB‐231. The series is described as follows: Mitochondrial membrane potential (JC‐1) apoptosis assay, MDA‐MB‐231. It is filed as cell-based, human. The following applies: MDA‐MB‐231, 50 μM, 24 h, MMP assay. As for the experimental part:
(§8) Apoptosis was also investigated by evaluating mitochondrial membrane potential changes (MMP assay). MCF‐7, MDA‐MB‐231, and L‐929 cells were stained with JC‐1 dye according to the manufacturer's protocols (JC‐1 MMP Assay Kit, KA1324, Abnova). The apoptotic to healthy cell ratio was calculated using absorbances collected from two different fluorescence channels (535/595 for healthy cells, 485/535 for apoptotic cells) (Synergy H1, Biotech Instruments Inc., Vermont, USA).

Series [10] has as its system MDA‐MB‐231. The series is described as follows: MTT cell viability assay, MDA‐MB‐231. It is filed as cell-based, human. The following applies: for IC50: Homo sapiens, MTT.
Description: as §1, §2, §3, §4

The subject of another series is Bax/Bcl‐2 ratio. The series is described as follows: Western blot Bax/Bcl‐2 ratio in breast cancer cell lines. It is filed as cell-based, human. The settings on record: 50 and 75 µM, 24 h. On the procedure:
as §5

Another series concerns c‐PARP. Put plainly: Western blot cleaved PARP, MDA‐MB‐231. It is filed as cell-based, human. The settings on record: MDA‐MB‐231, 24 h, all concentrations (50 and 75 µM); not measurable in MCF‐7. As for the experimental part:
as §5

Series [11] relates to COX‐2. Put plainly: Western blot COX‐2 protein expression, MCF‐7. The following applies: 24 h. Type of series: cell-based, human. On the procedure:
as §5

The subject of series [12] is L‐929 mouse fibroblast cell line. Put plainly: MTT cell viability assay, L‐929 control fibroblasts. It is filed as cell-based. The settings on record: Mus musculus.
Description: as §1, §2, §3, §4

The test system of a further series is L‐929. The series is described as follows: Mitochondrial membrane potential (JC‐1) apoptosis assay, L‐929. Type of series: cell-based, mouse. The following applies: L‐929, 50 μM, 24 h, MMP assay. As for the experimental part:
as §8

The subject of series [13] is MCF‐7. The series is described as follows: Mitochondrial membrane potential (JC‐1) apoptosis assay, MCF‐7. The settings on record: MCF‐7, 50 μM, 24 h, MMP assay. Type of series: cell-based, human. On the procedure: as §8

For the compound `Cc1ccc(-c2cc(C(F)(F)F)nn2-c2ccc(S(N)(=O)=O)cc2)cc1` [Celecoxib], the IC50 in the series with MCF‐7 [1] was 89 µM; in the series on MCF‐7 [1] (listed as celecoxib), 40.1 µM; with MDA‐MB‐231 [2] it was 40.1 µM; in the series on MDA‐MB‐231 [2] (listed as celecoxib), 89 µM; in series [3], 25 to 100 µM.

For the compound `CCc1cccc2c3c([nH]c12)[C@@](CC)(CC(=O)O)OCC3` [Etodolac R‐enantiomer SDX‐101], the IC50 in series [4] is 490 µM.

In the case of `CCc1cc(Br)cc2c3c([nH]c12)C(CC)(CCO)OCC3` (stereo not shown) [Etodolac analog SDX‐308], in series [4], the IC50 was 23.8 µM.

As to `CCc1cccc2c3c([nH]c12)C(CC)(CC(=O)NN1C(=O)CSC1c1c(F)cccc1F)OCC3` (stereo not shown) [SGK 217, 3‐(2‐(1,8‐Diethyl‐1,3,4,9‐tetrahydropyrano[3,4‐b]indole‐1‐yl)acetylhydrazono)‐2‐(2,6‐difluorophenyl)‐4‐thiazolidinone], the IC50 was 18 ± 3.4 µM in the series with MCF‐7 [5] (MCF‐7, 24 h); 12.2 ± 2 µM with MCF‐7 [5] (MCF‐7, 48 h); 26.7 ± 4.8 µM in the series on MCF‐7 [5] (MCF‐7, 72 h); 36 ± 1.6 µM with MDA‐MB‐231 [10] (MDA-MB-231, 24 h, MDA‐MB‐231, 24 h); 13.8 ± 1.6 µM in the series on MDA‐MB‐231 [10] (MDA-MB-231, 48 h, MDA‐MB‐231, 48 h); 14.6 ± 1.4 µM in the series on MDA‐MB‐231 [10] (MDA-MB-231, 72 h, MDA‐MB‐231, 72 h). Further, the IC50 in [12] (L929, 24 h, L‐929, 24 h) worked out at 72 ± 3.2 µM; in series [12] (L929, 48 h, L‐929, 48 h), 29.6 ± 0.94 µM; in series [12] (L929, 72 h, L‐929, 72 h), 26.3 ± 0.112 µM. For the same compound, the “Selectivity index (SI)” value is 4.0 in the series on MCF‐7 [5] (MCF‐7 in comparison to L‐929, 24 h); 2.4 in the series with MCF‐7 [5] (MCF‐7 in comparison to L‐929, 48 h); 1 in the series with MCF‐7 [5] (MCF‐7 in comparison to L‐929, 72 h); 2.0 in the series with MDA‐MB‐231 [10] (MDA‐MB‐231 in comparison to L‐929, 24 h); 2.1 in the series on MDA‐MB‐231 [10] (MDA‐MB‐231 in comparison to L‐929, 48 h); 1.8 with MDA‐MB‐231 [10] (MDA‐MB‐231 in comparison to L‐929, 72 h). Further, the “Decrease in COX‐2 protein expression compared to the control group” value with COX‐2 [6] (MDA‐MB‐231, 50 µM) was found to be 61%; with COX‐2 [6] (MDA‐MB‐231, 75 µM), 84%; in the series with COX‐2 [11] (MCF‐7, 50 µM) it was 56%; with COX‐2 [11] (MCF‐7, 75 µM), 85%. Also, the Apoptotic cells in the series with MDA‐MB‐231 [7] (25 µM) is on record as 0%; in the series with MDA‐MB‐231 [7] (50 µM), 23%; with MCF‐7 [8] (25 µM) it was 6%; in the series on MCF‐7 [8] (50 µM), 16%; with MCF‐7 [8] (75 µM), 18%. Besides, the Dead cells with MDA‐MB‐231 [7] (25 µM) is 7%; in the series on MDA‐MB‐231 [7] (50 µM) it was 11%; with MCF‐7 [8] (25 µM), 7%; with MCF‐7 [8] (50 µM) it was 10%; with MCF‐7 [8] (75 µM), 27%. For the same compound, the Live cells was determined as 93% in the series with MDA‐MB‐231 [7] (25 µM); 66% in the series with MDA‐MB‐231 [7] (50 µM); 87% with MCF‐7 [8] (25 µM); 74% with MCF‐7 [8] (50 µM); 55% in the series on MCF‐7 [8] (75 µM). The “Increase in apoptosis compared to the control group” value in the series with MDA‐MB‐231 [9] was determined as 85%; in the series with L‐929 it was 3%; in the series on MCF‐7 [13] it was 51%. For the same compound, the “Bax/Bcl‐2 ratio change” value in the series on Bax/Bcl‐2 ratio is listed as “significantly rise”. Besides, the “c‐PARP (89‐kD fragment) protein change” value in the series with c‐PARP is reported as “consistent activation; also recorded: significant increase”.
